Where two headings read alike, the source gives them in different places.
How the values were obtained:
Puccinia recondita = assay: Test Example E: Brown rust on wheat; assay type: in vivo
Magnaporthe grisea = assay: whole plant or invertebrate; assay type: in vivo; details: Pyricularia oryzae, in Oryza sativa
Botrytis cinerea = assay: Test Example B: Gray mold on tomato; assay type: in vivo
Phytophthora infestans = assay: whole plant or invertebrate; assay type: in vivo; details: in Solanum lycopersicum
[1] = test system: Blumeria graminis f. sp. hordei; assay: Test Example D: Powdery mildew on barley; assay type: in vivo
Plasmopara viticola = assay: Test Example G: Downy mildew on vine; assay type: in vivo
Alternaia brassicicola = assay: Test Example C: Alternaria sooty spot on cabbage; assay type: in vivo; details: Brassica oleracea
[2] = test system: Colletotrichum orbiculare; assay: whole plant or invertebrate; details: in Cucumis sativus, read-out: control value, Test H (anthracnose on cucumber)
Procedure: Seeds of a test plant (cucumber variety: Sagami Hanjiro) were planted and cultivated until the first leaf appeared. In the test, the compounds of the present invention were dissolved into a dimethyl sulfoxide-methanol mixture solution (volume ratio: 9/1), and the resultant solutions were diluted with well water to a concentration of 250 ppm. The thus-obtained dilutions were sprayed to the test plant (2.5 ml/pot). After the dilutions dried, a conidial suspension (2-4×10^5 conidia/ml) of Colletotrichum orbiculare was inoculated to the plant by spraying. After the inoculation, the plant was kept in a mist chamber at room temperature of 20 to 23° C. for about 24 hours to promote the onset of disease. The disease development was investigated 6 to 10 days after the inoculation, and the effectiveness of the dilutions was evaluated.
Disease development in Test Example described above was evaluated in increments of 0.05 by setting 0 as no incidence of disease and 3 as disease development in a plant of untreated group. In addition, control values were calculated using the following equation based on disease development.
Control value=100 {1−(n/3)}
n=Disease development of each treated groups

[3] = Brown rust on wheat, read-out: Test E control value
[4] = Gray mold on tomato, read-out: Test B control value
[5] = Powdery mildew on barley, read-out: Test D control value
[6] = Downy mildew on vine, 250 ppm sprayed, 2.5 ml/pot, 7 to 10 days after inoculation, read-out: Test G control value
[7] = Alternaria sooty spot on cabbage, read-out: Test C control value
[8] = Table 7, Test E, read-out: control value, Test E (brown rust on wheat)
[9] = read-out: control value, Test A (blast on rice)
[10] = Table 7, Test B, read-out: control value, Test B (gray mold on tomato)
[11] = read-out: control value, Test F (late blight on tomato)
[12] = Table 7, Test D, read-out: control value, Test D (powdery mildew on barley)
[13] = 250 ppm sprayed (2.5 ml/pot) before inoculation, assessed 7 to 10 days after inoculation, read-out: control value, Test G (downy mildew on vine)
[14] = Table 7, Test C, read-out: control value, Test C (Alternaria sooty spot on cabbage)

CCn1c(-c2c(F)cc(F)cc2F)c(-n2cnc(Cl)c2Cl)ccc1=O [compound 136, 5-(4,5-dichloro-1H-imidazol-1-yl)-1-ethyl-6-(2,4,6-trifluorophenyl)pyridin-2(1H)-one]
pest or weed control at 250 µg/mL (Puccinia recondita; [3]): > 50%
pest or weed control at 250 µg/mL (Magnaporthe grisea; read-out: Test A control value): > 50%
pest or weed control at 250 µg/mL (Botrytis cinerea; [4]): > 50%
pest or weed control at 250 µg/mL (Phytophthora infestans; read-out: Test F control value): < 50%
pest or weed control at 250 µg/mL [1, 5]: > 50%
pest or weed control at 250 ppm (Plasmopara viticola; [6]): > 50%
pest or weed control at 250 µg/mL (Alternaia brassicicola; [7]): > 50%

CCn1c(-c2c(F)cc(F)cc2F)c(-n2cnc(Cl)c2Cl)cc(Cl)c1=O [compound 138, 3-chloro-5-(4,5-dichloro-1H-imidazol-1-yl)-1-ethyl-6-(2,4,6-trifluorophenyl)pyridin-2(1H)-one]
pest or weed control at 250 µg/mL (Puccinia recondita; [3]): > 50%
pest or weed control at 250 µg/mL (Magnaporthe grisea; read-out: Test A control value): > 50%
pest or weed control at 250 µg/mL (Botrytis cinerea; [4]): > 50%
pest or weed control at 250 µg/mL (Phytophthora infestans; read-out: Test F control value): < 50%
pest or weed control at 250 µg/mL [1, 5]: > 50%
pest or weed control at 250 ppm (Plasmopara viticola; [6]): < 50%
pest or weed control at 250 µg/mL (Alternaia brassicicola; [7]): > 50%

CCn1c(-c2c(F)cc(F)cc2F)c(-n2cc(Cl)cn2)cc(I)c1=O [compound 140, 5-(4-chloro-1H-pyrazol-1-yl)-1-ethyl-3-iodo-6-(2,4,6-trifluoro-phenyl)pyridin-2(1H)-one]
pest or weed control at 250 µg/mL (Puccinia recondita; [3]): > 50%
pest or weed control at 250 µg/mL (Magnaporthe grisea; read-out: Test A control value): < 50%
pest or weed control at 250 µg/mL (Botrytis cinerea; [4]): > 50%
pest or weed control at 250 µg/mL (Phytophthora infestans; read-out: Test F control value): < 50%
pest or weed control at 250 µg/mL [1, 5]: > 50%
pest or weed control at 250 ppm (Plasmopara viticola; [6]): < 50%
pest or weed control at 250 µg/mL (Alternaia brassicicola; [7]): > 50%

CCn1c(-c2c(F)cc(O)cc2F)c(-n2cc(Cl)cn2)cc(Cl)c1=O [compound 184, 3-chloro-5-(4-chloro-1H-pyrazol-1-yl)-6-(2,6-difluoro-4-hydroxyphenyl)-1-ethylpyridin-2(1H)-one]
pest or weed control at 250 µg/mL (Puccinia recondita; [8]): > 50%
pest or weed control at 250 µg/mL (Magnaporthe grisea; [9]): < 50%
pest or weed control at 250 µg/mL (Botrytis cinerea; [10]): > 50%
pest or weed control at 250 µg/mL (Phytophthora infestans; [11]): < 50%
pest or weed control at 250 µg/mL [1, 12]: < 50%
pest or weed control at 250 ppm (Plasmopara viticola; [13]): > 50%
pest or weed control at 250 µg/mL (Alternaia brassicicola; [14]): > 50%
pest or weed control at 250 ppm [2]: > 50%

C#CCOc1cc(F)c(-c2c(-n3cc(Cl)cn3)cc(Cl)c(=O)n2CC)c(F)c1 [compound 201, 3-chloro-5-(4-chloro-1H-pyrazol-1-yl)-6-(2,6-difluoro-4-(propargyloxy)phenyl)-1-ethyl pyridin-2(1H)-one]
pest or weed control at 250 µg/mL (Puccinia recondita; [8]): > 50%
pest or weed control at 250 µg/mL (Magnaporthe grisea; [9]): > 50%
pest or weed control at 250 µg/mL (Botrytis cinerea; [10]): > 50%
pest or weed control at 250 µg/mL (Phytophthora infestans; [11]): < 50%
pest or weed control at 250 µg/mL [1, 12]: > 50%
pest or weed control at 250 ppm (Plasmopara viticola; [13]): < 50%
pest or weed control at 250 µg/mL (Alternaia brassicicola; [14]): > 50%
pest or weed control at 250 ppm [2]: > 50%

C=CCOc1cc(F)c(-c2c(-n3cc(Cl)cn3)cc(Cl)c(=O)n2CC)c(F)c1 [compound 202, 6-(4-(allyloxy)-2,6-difluorophenyl)-3-chloro-5-(4-chloro-1H-pyrazol-1-yl)-1-ethylpyridin-2(1H)-one]
pest or weed control at 250 µg/mL (Puccinia recondita; [8]): > 50%
pest or weed control at 250 µg/mL (Magnaporthe grisea; [9]): > 50%
pest or weed control at 250 µg/mL (Botrytis cinerea; [10]): > 50%
pest or weed control at 250 µg/mL (Phytophthora infestans; [11]): < 50%
pest or weed control at 250 µg/mL [1, 12]: > 50%
pest or weed control at 250 ppm (Plasmopara viticola; [13]): < 50%
pest or weed control at 250 µg/mL (Alternaia brassicicola; [14]): > 50%
pest or weed control at 250 ppm [2]: > 50%

CCn1c(-c2c(F)cc(OCCOC)cc2F)c(-n2cc(Cl)cn2)cc(Cl)c1=O [compound 204, 3-chloro-5-(4-chloro-1H-pyrazol-1-yl)-6-(2,6-difluoro-4-(2-methoxyethoxy)phenyl)-1-ethylpyridin-2(1H)-one]
pest or weed control at 250 µg/mL (Puccinia recondita; [8]): < 50%
pest or weed control at 250 µg/mL (Magnaporthe grisea; [9]): < 50%
pest or weed control at 250 µg/mL (Botrytis cinerea; [10]): > 50%
pest or weed control at 250 µg/mL (Phytophthora infestans; [11]): < 50%
pest or weed control at 250 µg/mL [1, 12]: < 50%
pest or weed control at 250 ppm (Plasmopara viticola; [13]): < 50%
pest or weed control at 250 µg/mL (Alternaia brassicicola; [14]): > 50%
pest or weed control at 250 ppm [2]: > 50%

CCn1c(-c2c(F)cc(OC(C)=O)cc2F)c(-n2cc(Cl)cn2)cc(Cl)c1=O [compound 205]
pest or weed control at 250 µg/mL (Puccinia recondita; in Triticum aestivum, Table 7, Test E, read-out: control value, Test E (brown rust on wheat)): > 50%
pest or weed control at 250 µg/mL (Magnaporthe grisea; [9]): < 50%
pest or weed control at 250 µg/mL (Botrytis cinerea; in Solanum lycopersicum, Table 7, Test B, read-out: control value, Test B (gray mold on tomato)): > 50%
pest or weed control at 250 µg/mL (Phytophthora infestans; [11]): < 50%
pest or weed control at 250 µg/mL ([1]; in Hordeum vulgare, Table 7, Test D, read-out: control value, Test D (powdery mildew on barley)): < 50%
pest or weed control at 250 ppm (Plasmopara viticola; [13]): < 50%
pest or weed control at 250 µg/mL (Alternaia brassicicola; [14]): > 50%
pest or weed control at 250 ppm [2]: < 50%

CCn1c(-c2c(F)cc(F)cc2F)c(-n2cc(Cl)cn2)cc(C)c1=O [compound 206, 5-(4-chloro-1H-pyrazol-1-yl)-1-ethyl-3-methyl-6-(2,4,6-trifluoro-phenyl)pyridin-2(1H)-one]
pest or weed control at 250 µg/mL (Puccinia recondita; [8]): > 50%
pest or weed control at 250 µg/mL (Magnaporthe grisea; [9]): > 50%
pest or weed control at 250 µg/mL (Botrytis cinerea; [10]): > 50%
pest or weed control at 250 µg/mL (Phytophthora infestans; [11]): < 50%
pest or weed control at 250 µg/mL [1, 12]: > 50%
pest or weed control at 250 ppm (Plasmopara viticola; [13]): < 50%
pest or weed control at 250 µg/mL (Alternaia brassicicola; [14]): > 50%
pest or weed control at 250 ppm [2]: > 50%

From patent publication US11178870B2 (priority 2017, dated 2021)
